Structures can show the parent of a compound that is named as a salt.
Target: mGluR5 receptor (Sus scrofa, UniProt I3LUI7)
Assay: Affinity for the mGluR5 receptor: inhibition of 3[H]-MPEP binding in pig brain homogenate
Conditions: for IC50: 3[H]-MPEP binding
Procedure, shortened: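 Pig brain membranes (450 μg protein; hemispheres without medulla, cerebellum and pons) in 30 mM Hepes pH 8.0 were incubated 60 min at room temperature with 5 nM [3H]-MPEP and compound at 10 μM. Bound radioactivity was filtered and counted. Nonspecific binding was defined with 10 μM MPEP.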

mGluR5 receptor, sequence (I3LUI7 19-1212): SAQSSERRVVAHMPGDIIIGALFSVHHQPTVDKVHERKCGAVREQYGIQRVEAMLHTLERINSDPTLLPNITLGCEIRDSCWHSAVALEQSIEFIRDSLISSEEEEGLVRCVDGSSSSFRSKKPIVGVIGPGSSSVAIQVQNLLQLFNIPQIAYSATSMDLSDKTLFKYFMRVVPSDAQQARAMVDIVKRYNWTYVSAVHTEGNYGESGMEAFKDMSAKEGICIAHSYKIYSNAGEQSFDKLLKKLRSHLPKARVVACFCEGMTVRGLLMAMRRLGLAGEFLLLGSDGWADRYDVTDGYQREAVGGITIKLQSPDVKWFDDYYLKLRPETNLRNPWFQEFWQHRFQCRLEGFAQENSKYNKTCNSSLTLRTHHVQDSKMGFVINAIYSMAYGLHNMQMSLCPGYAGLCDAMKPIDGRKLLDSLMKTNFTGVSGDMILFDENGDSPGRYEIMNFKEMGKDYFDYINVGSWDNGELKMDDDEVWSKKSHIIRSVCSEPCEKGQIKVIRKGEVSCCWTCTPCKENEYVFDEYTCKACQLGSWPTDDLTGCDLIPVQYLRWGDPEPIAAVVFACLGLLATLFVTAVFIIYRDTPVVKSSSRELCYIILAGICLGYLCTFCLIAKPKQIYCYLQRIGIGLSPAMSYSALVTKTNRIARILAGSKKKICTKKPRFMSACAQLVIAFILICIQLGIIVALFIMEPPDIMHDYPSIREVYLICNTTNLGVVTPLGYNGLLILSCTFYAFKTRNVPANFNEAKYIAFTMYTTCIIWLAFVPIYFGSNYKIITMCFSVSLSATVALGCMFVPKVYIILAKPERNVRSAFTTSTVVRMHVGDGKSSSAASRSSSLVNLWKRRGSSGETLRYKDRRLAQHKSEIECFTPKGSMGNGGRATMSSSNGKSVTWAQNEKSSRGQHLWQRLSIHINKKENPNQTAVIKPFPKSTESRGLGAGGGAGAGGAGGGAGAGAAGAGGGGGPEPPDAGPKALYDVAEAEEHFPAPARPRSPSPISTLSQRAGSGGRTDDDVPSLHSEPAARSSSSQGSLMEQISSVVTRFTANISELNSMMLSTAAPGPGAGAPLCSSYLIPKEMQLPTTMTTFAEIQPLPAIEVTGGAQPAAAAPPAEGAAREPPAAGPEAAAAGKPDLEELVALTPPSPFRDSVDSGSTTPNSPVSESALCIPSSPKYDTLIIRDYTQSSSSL

SMILES	IC50	inhibition at 10 µM (10 μM compound, 5 nM 3[H]-MPEP, read-out: mGluR5 receptor inhibition of ^3[H]-MPEP binding [10 μM] in % at a concentration of the example compounds of 10 μM)
Cc1cccn2c(NC(C)(C)C)c(-c3ccc(C#Cc4ccccc4)s3)nc12 [Example 97, N-tert-butyl-8-methyl-2-(5-(phenylethynyl)thiophen-2-yl)imidazo[1,2-a]pyridin-3-amine]	590 nM	
Cc1ccn2c(NC(C)(C)C)c(-c3ccc(C#Cc4ccccc4)s3)nc2c1 [Example 101, N-tert-butyl-7-methyl-2-(5-(phenylethynyl)thiophen-2-yl)imidazo[1,2-a]pyridin-3-amine]	2470 nM	
Cc1cccc2nc(-c3ccc(C#Cc4ccccc4)s3)c(NC(C)(C)C)n12 [Example 102, N-tert-butyl-5-methyl-2-(5-(phenylethynyl)thiophen-2-yl)imidazo[1,2-a]pyridin-3-amine]	8850 nM	
CC(C)(C)CC(C)(C)Nc1c(-c2cccc(C#Cc3ccccn3)c2)nc2c(Cl)cc(C(F)(F)F)cn12 [Example 103, 8-chloro-2-(3-(pyridin-2-ylethynyl)phenyl)-6-(trifluoromethyl)-N-(2,4,4-trimethylpentan-2-yl)imidazo[1,2-a]pyridin-3-amine]		66%
CC(C)(C)Nc1c(-c2ccc(C#Cc3ccc(N)cc3)s2)nc2cnccn12 [Example 108, 2-(5-((4-aminophenyl)ethynyl)thiophen-2-yl)-N-tert-butylimidazo[1,2-a]pyrazin-3-amine]	1240 nM	
CC(C)(C)Nc1c(-c2cccc(C#Cc3ccccn3)c2)nc2cnccn12 [Example 111, N-tert-butyl-2-(3-(pyridin-2-ylethynyl)phenyl)imidazo[1,2-a]pyrazin-3-amine]	1370 nM	
COc1ccccc1C#Cc1ccc(-c2nc3cnccn3c2NC(C)(C)C)s1 [Example 112, N-tert-butyl-2-(5-((2-methoxyphenyl)ethynyl)thiophen-2-yl)imidazo[1,2-a]pyrazin-3-amine hydrochloride]	7520 nM	
COc1ccc(C#Cc2ccc(-c3nc4cnccn4c3NC(C)(C)C)s2)cc1 [Example 114, N-tert-butyl-2-(5-((4-methoxyphenyl)ethynyl)thiophen-2-yl)imidazo[1,2-a]pyrazin-3-amine hydrochloride]	2110 nM	
CC(C)(C)Nc1c(-c2ccc(C#Cc3ccccc3)s2)nc2ccc3ccccc3n12 [Example 115, N-tert-butyl-2-(5-(phenylethynyl)thiophen-2-yl)imidazo[1,2-a]quinolin-1-amine]	7740 nM	
Cc1cccc(C#Cc2cccc(-c3nc4cnccn4c3NC(C)(C)C)c2)n1 [Example 117, N-tert-butyl-2-(3-((6-methylpyridin-2-yl)ethynyl)phenyl)imidazo[1,2-a]pyrazin-3-amine]	880 nM	
Cc1nc(C#Cc2ccccc2)ccc1-c1nc2cnccn2c1NC(C)(C)C [Example 118, N-tert-butyl-2-(2-methyl-6-(phenylethynyl)pyridin-3-yl)imidazo[1,2-a]pyrazin-3-amine]	6380 nM	
CC(C)(C)Nc1c(-c2ccc(C#Cc3ccccc3)s2)nc2c(C(=O)O)nccn12 [Example 120, 3-(tert-butylamino)-2-(5-(phenylethynyl)thiophen-2-yl)imidazo[1,2-a]pyrazine-8-carboxylic acid]	3630 nM	
CC(C)(C)Nc1c(-c2ccc(C#Cc3ccc(O)cc3)s2)nc2cnccn12 [Example 121, 4-((5-(3-(tert-butylamino)imidazo[1,2-a]pyrazin-2-yl)thiophen-2-yl)ethynyl)phenol hydrochloride]	2540 nM	
CC(C)(C)Nc1c(-c2ccc(C#Cc3ccccc3)s2)nc2c3ccccc3ccn12 [Example 125, N-tert-butyl-2-(5-(phenylethynyl)thiophen-2-yl)imidazo[2,1-a]isoquinolin-3-amine]	6520 nM	
CC(C)(C)Nc1c(-c2ccc(C#Cc3ccccc3)nc2)nc2cnccn12 [Example 126, N-tert-butyl-2-(6-(phenylethynyl)pyridin-3-yl)imidazo[1,2-a]pyrazin-3-amine]	3250 nM	
CC(C)(C)Nc1c(-c2ccc(C#Cc3ccc(N)nc3)s2)nc2cnccn12 [Example 128, 2-(5-((6-aminopyridin-3-yl)ethynyl)thiophen-2-yl)-N-tert-butylimidazo[1,2-a]pyrazin-3-amine hydrochloride]	15600 nM	
Cc1ccc(C#Cc2ccc(-c3nc4cnccn4c3NC(C)(C)C)s2)s1 [Example 135, N-tert-butyl-2-(5-((5-methylthiophen-2-yl)ethynyl)thiophen-2-yl)imidazo[1,2-a]pyrazin-3-amine hydrochloride]	1200 nM	
CC(C)(C)Nc1c(-c2ccc(C#Cc3cccc(N)n3)s2)nc2cnccn12 [Example 136, 2-(5-((6-aminopyridin-2-yl)ethynyl)thiophen-2-yl)-N-tert-butylimidazo[1,2-a]pyrazin-3-amine hydrochloride]	13800 nM	
Cc1ccsc1C#Cc1ccc(-c2nc3cnccn3c2NC(C)(C)C)s1 [Example 137, N-tert-butyl-2-(5-((3-methylthiophen-2-yl)ethynyl)thiophen-2-yl)imidazo[1,2-a]pyrazin-3-amine]	860 nM	

Results, then the compound that gave them:

IC50	inhibition at 10 µM (10 μM compound, 5 nM 3[H]-MPEP, read-out: mGluR5 receptor inhibition of ^3[H]-MPEP binding [10 μM] in % at a concentration of the example compounds of 10 μM)	SMILES
250 nM		CN(c1c(-c2ccc(C#Cc3ccccc3)s2)nc2cnccn12)C(C)(C)CC(C)(C)C [Example 98, N-methyl-2-(5-(phenylethynyl)thiophen-2-yl)-N-(2,4,4-trimethylpentan-2-yl)imidazo[1,2-a]pyrazin-3-amine hydrochloride]
540 nM		C(#Cc1ccc(-c2nc3cnccn3c2N2CCCC2)s1)c1ccccc1 [Example 99, 2-(5-(phenylethynyl)thiophen-2-yl)-3-(pyrrolidin-1-yl)imidazo[1,2-a]pyrazine hydrochloride]
340 nM		CC(C)(C)Nc1c(-c2ccc(C#Cc3ccc(F)cc3)s2)nc2cnccn12 [Example 100, N-tert-butyl-2-(5-((4-fluorophenyl)ethynyl)thiophen-2-yl)imidazo[1,2-a]pyrazin-3-amine hydrochloride]
92 nM		CC(C)(C)Nc1c(-c2ccc(C#Cc3cccc(F)c3)s2)nc2cnccn12 [Example 104, N-tert-butyl-2-(5-((3-fluorophenyl)ethynyl)thiophen-2-yl)imidazo[1,2-a]pyrazin-3-amine hydrochloride]
150 nM		CC(C)(C)Nc1c(-c2ccc(C#Cc3ccccc3F)s2)nc2cnccn12 [Example 105, N-tert-butyl-2-(5-((2-fluorophenyl)ethynyl)thiophen-2-yl)imidazo[1,2-a]pyrazin-3-amine hydrochloride]
210 nM		COC(=O)c1nccn2c(NC(C)(C)C)c(-c3ccc(C#Cc4ccccc4)s3)nc12 [Example 106, methyl-3-(tert-butylamino)-2-(5-(phenylethynyl)thiophen-2-yl)imidazo[1,2-a]pyrazine-8-carboxylate]
52 nM		CC(C)(C)Nc1c(-c2ccc(C#Cc3cnccn3)s2)nc2cnccn12 [Example 107, N-tert-butyl-2-(5-(pyrazin-2-ylethynyl)thiophen-2-yl)imidazo[1,2-a]pyrazin-3-amine]
300 nM		CC(C)Nc1c(-c2ccc(C#Cc3ccccc3)s2)nc2cnccn12 [Example 109, N-isopropyl-2-(5-(phenylethynyl)thiophen-2-yl)imidazo[1,2-a]pyrazin-3-amine]
75 nM		COc1cccc(C#Cc2ccc(-c3nc4cnccn4c3NC(C)(C)C)s2)c1 [Example 113, N-tert-butyl-2-(5-((3-methoxyphenyl)ethynyl)thiophen-2-yl)imidazo[1,2-a]pyrazin-3-amine hydrochloride]
36 nM		CC(C)(C)Nc1c(-c2ccc(C#Cc3ccccn3)o2)nc2cnccn12 [Example 119, N-tert-butyl-2-(5-(pyridin-2-ylethynyl)furan-2-yl)imidazo[1,2-a]pyrazin-3-amine]
130 nM		CC(C)(C)Nc1c(-c2ccc(C#Cc3cccc(O)c3)s2)nc2cnccn12 [Example 122, 3-((5-(3-(tert-butylamino)imidazo[1,2-a]pyrazin-2-yl)thiophen-2-yl)ethynyl)phenol]
14 nM		CC(C)(C)Nc1c(-c2ccc(C#Cc3cccc(N)c3)s2)nc2cnccn12 [Example 123, 2-(5-((3-aminophenyl)ethynyl)thiophen-2-yl)-N-tert-butylimidazo[1,2-a]pyrazin-3-amine hydrochloride]
170 nM		CC(C)(C)Nc1c(-c2ccc(C#Cc3ccccc3N)s2)nc2cnccn12 [Example 124, 2-(5-((2-aminophenyl)ethynyl)thiophen-2-yl)-N-tert-butylimidazo[1,2-a]pyrazin-3-amine hydrochloride]
12 nM		CC(C)(C)Nc1c(-c2ccc(C#Cc3ncccn3)s2)nc2cnccn12 [Example 129, N-tert-butyl-2-(5-(pyrimidin-2-ylethynyl)thiophen-2-yl)imidazo[1,2-a]pyrazin-3-amine hydrochloride]
37 nM		Cc1ccnc(C#Cc2ccc(-c3nc4cnccn4c3NC(C)(C)C)s2)c1 [Example 130, N-tert-butyl-2-(5-((4-methylpyridin-2-yl)ethynyl)thiophen-2-yl)imidazo[1,2-a]pyrazin-3-amine hydrochloride]
140 nM		Cc1ccc(C#Cc2ccc(-c3nc4cnccn4c3NC(C)(C)C)s2)nc1 [Example 131, N-tert-butyl-2-(5-((5-methylpyridin-2-yl)ethynyl)thiophen-2-yl)imidazo[1,2-a]pyrazin-3-amine hydrochloride]
16 nM		CC(C)(C)Nc1c(-c2ccc(C#Cc3ccncc3)s2)nc2ccccn12 [Example 132, N-tert-butyl-2-(5-(pyridin-4-ylethynyl)thiophen-2-yl)imidazo[1,2-a]pyridin-3-amine hydrochloride]
15 nM		CC(C)(C)Nc1c(-c2ccc(C#Cc3nccs3)s2)nc2cnccn12 [Example 133, N-tert-butyl-2-(5-(thiazol-2-ylethynyl)thiophen-2-yl)imidazo[1,2-a]pyrazin-3-amine]
570 nM		Nc1c(-c2ccc(C#Cc3ccccn3)s2)nc2cnccn12 [Example 134, 2-(5-(pyridin-2-ylethynyl)thiophen-2-yl)imidazo[1,2-a]pyrazin-3-amine hydrochloride]

Reference: patent publication US7420056B2, “Substituted bicyclic imidazo-3-ylamine compounds” (Gruenenthal GmbH, priority 2004, dated 2008)
